Laboratory results: publication PMC6724197 (Journal of chemical ecology, 2018)

Assays:
[1] = test system: mountain cottontails (Sylvilagus nuttallii); test: Two-choice feeding trial: single monoterpene diet vs monoterpene mixture diet; format: in vivo
[2] = test system: pygmy rabbits (Brachylagus idahoensis); test: as above; format: in vivo; details: for percentage of single monoterpene in the diet relative to monoterpene mixture: pygmy rabbits
[3] = test system: digestive enzyme; details: in a generalist more than in a specialist avian folivore; ref Kohl et al. 2015; cited from earlier work

SMILES	amount of single monoterpene diet consumed relative to monoterpene mixture [1]	percentage of single monoterpene in the diet relative to monoterpene mixture [2]	amount of monoterpene mixture consumed relative to single monoterpene diet [1]	effect on digestive enzyme activity [3]	proportion consumed by pygmy rabbits relative to cottontails ([2]; pygmy rabbits vs mountain cottontails)
CC12CCC(CC1)C(C)(C)O2 [1,8-cineole]	24 times	twice			
C=C1C2CCC(C2)C1(C)C (centres unmarked) [camphene]	more than five times				
CC12CCC(CC1=O)C2(C)C (centres unmarked) [camphor]		twice	twice	reduced digestive enzyme activity	twice
C=C1CCC2CC1C2(C)C (stereo not drawn) [β-pinene]			three times		
